# Assay results taken from US20250188092A1, “RIFAMYCIN ANALOGS” (THE REGENTS OF THE UNIVERSITY OF MICHIGAN, priority 2021, published 2025).
# Where two headings read alike, the source gives them in different places.
# Columns and labels:
# β-S450L (RIF^R) MTB RNAP = β-S450L (RIF^R) MTB RNAP (Mycobacterium tuberculosis, UniProt P9WGY9, S456L); conditions: read-out: RNAP IC50 MTB S450L
# [1] = test system: non-replicating cultures of M. tuberculosis H37Rv transformed with lux ABCDE; experiment: microbe, parasite or virus in culture; assay type: cell-based, Mycobacterium tuberculosis; conditions: for MIC90 LORA/MABA: ratio of LORA MIC90 to MABA MIC90
# [2] = test system: M. tuberculosis transformed with luxABCDE; experiment: microbe, parasite or virus in culture; assay type: cell-based, Mycobacterium tuberculosis; conditions: for MBC: ≥99% reduction in luminescence, read-out: MBC99 Day 7 (Lux Assay) MBC
# [3] = […], ≥90% reduction in luminescence, read-out: MIC90 LORA
# [4] = Mycobacterium tuberculosis, H37RV, […], ≥90% reduction in luminescence, read-out: MIC90 LORA
# [5] = Mycobacterium tuberculosis, 168 h
Structure (SMILES),IC50 (β-S450L (RIF^R) MTB RNAP),MIC90 LORA Rel to RMP [1],"MIC90 [1, 3]",MIC90 LORA/MABA [1],MBC99 Day 7 (Lux Assay) MBC Rel to RMP [2],MBC [2],"MIC [1, 4]","MBC [2, 5]","MIC90 [1, 4]"
"CO[C@H]1/C=C/O[C@@]2(C)Oc3c(C)c(O)c4c(=O)c(c5oc6cc(N7CCN(C(=O)c8cccc(-c9ccccn9)c8)CC7)cc(OCc7ccc(CN8CCOCC8)cc7)c6nc-5c4c3C2=O)NC(=O)/C(C)=C\C=C\[C@H](C)[C@H](O)[C@@H](C)[C@@H](O)[C@@H](C)[C@H](OC(C)=O)[C@@H]1C [Compound 17r, (7S,9E,11S,12R,13S,14R,15R,16R,17S,18S,19E,21Z)-2,15,17-trihydroxy-11-methoxy-3,7,12,14,16,18,22-heptamethyl-32-{[4-(morpholin-4-ylmethyl)phenyl]methoxy}-6,23,37-trioxo-30-(4-{[3-(pyridin-2-yl)phenyl]carbonyl}piperazin-1-yl)-8,27,38-trioxa-24,34-diazahexacyclo[23.11.1.1^4,7.0^5,36.0^26,35.0^28,33]octatriaconta-1,3,5(36)9,19,21,25,28,30,32,34-undecaen-13-yl acetate]",77 µM,2.60,0.13 µM,5.7,0.46,0.205 µM,–,–,–
"CO[C@H]1/C=C/O[C@@]2(C)Oc3c(C)c(O)c4c(=O)c(c5oc6cc(N7CCC(CC(=O)O)CC7)cc(N7CCC(CC(=O)O)CC7)c6nc-5c4c3C2=O)NC(=O)/C(C)=C\C=C\[C@H](C)[C@H](O)[C@@H](C)[C@@H](O)[C@@H](C)[C@H](OC(C)=O)[C@@H]1C [Compound 17v, 2-{1-[(7S,9E,11S,12R,13S,14R,15R,16R,17S,18S,19E,21Z)-13-(acetyloxy)-32-[4-(carboxymethyl)piperidin-1-yl]-2,15,17-trihydroxy-11-methoxy-3,7,12,14,16,18,22-heptamethyl-6,23,37-trioxo-8,27,38-trioxa-24,34-diazahexacyclo-[23.11.1.1^4,7.0^5,36.0^26,35.0^28,33]octatriaconta-1,3,5(36)9,19,21,25,28,30,32,34-undecaen-30-yl]piperidin-4-yl)acetic acid]",66 µM,–,–,–,–,>0.1 µM,–,–,–
"CO[C@H]1/C=C/O[C@@]2(C)Oc3c(C)c(O)c4c(=O)c(c5oc6cc(N7CCN(CC(C)C)CC7)cc(OCc7cccc(CN8CCN(C(=O)Cn9ccnc9)CC8)c7)c6nc-5c4c3C2=O)NC(=O)/C(C)=C\C=C\[C@H](C)[C@H](O)[C@@H](C)[C@@H](O)[C@@H](C)[C@H](OC(C)=O)[C@@H]1C [Compound 12c, (7S,9E,11S,12R,13S,14R,15R,16R,17S,18S,19E,21Z)-2,15,17-Trihydroxy-32-{[3-({4-[2-(1H-imidazol-1-yl)acetyl]piperazin-1-yl}methyl)phenyl]methoxy}-11-methoxy-3,7,12,14,16,18,22-heptamethyl-30-[4-(2-methylpropyl)piperazin-1-yl]-6,23,37-trioxo-8,27,38-trioxa-24,34-diazahexacyclo[23.11.1.1^4,7.0^5,36.0^26,35.0^28,33]octatriaconta-1(36)2,4,9,19,21,25,28,30,32,34-undecaen-13-yl acetate]",–,0.11,–,–,0.08,–,< 0.016 µM,0.037 µM,–
"CO[C@H]1/C=C/O[C@@]2(C)Oc3c(C)c(O)c4c(=O)c(c5oc6cc(N7CCC(CC(=O)O)CC7)cc(OCc7ccc(CN8CCOCC8)cc7)c6nc-5c4c3C2=O)NC(=O)/C(C)=C\C=C\[C@H](C)[C@H](O)[C@@H](C)[C@@H](O)[C@@H](C)[C@H](OC(C)=O)[C@@H]1C [Compound 17l, 2-{1-[(7S,9E,11S,12R,13S,14R,15R,16R,17S,18S,19E,21Z)-13-(acetyloxy)-2,15,17-trihydroxy-11-methoxy-3,7,12,14,16,18,22-heptamethyl-32-{[4-(morpholin-4-ylmethyl)phenyl]methoxy}-6,23,37-trioxo-8,27,38-trioxa-24,34-diazahexacyclo-[23.11.1.1^4,7.0^5,36.0^26,35.0^28,33]octatriaconta-1,3,5(36)9,19,21,25,28,30,32,34-undecaen-30-yl]piperidin-4-yl)acetic acid]",22 µM,31,0.843 µM,4.5,–,>0.1 µM,–,–,–
"CO[C@H]1/C=C/O[C@@]2(C)Oc3c(C)c(O)c4c(=O)c(c5oc6cc(C)cc(N7CCN(CCn8ccnc8)CC7)c6nc-5c4c3C2=O)NC(=O)/C(C)=C\C=C\[C@H](C)[C@H](O)[C@@H](C)[C@@H](O)[C@@H](C)[C@H](OC(C)=O)[C@@H]1C [Compound 30e, (7S,9E,11S,12R,13S,14R,15R,16R,17S,18S,19E,21Z)-2,15,17-Trihydroxy-32-{4-[3-(1H-imidazol-1-yl)ethyl]piperazin-1-yl}-11-methoxy-3,7,12,14,16,18,22,30-octamethyl-6,23,37-trioxo-8,27,38-trioxa-24,34-diazahexacyclo[23.11.1.1^4,7.0^5,36.0^26,35.0^28,33]octatriaconta-1(36)2,4,9,19,21,25,28,30,32,34-undecaen-13-yl acetate]",–,0.87,–,2.1,1.06,–,–,0.49 µM,0.18 µM
"CO[C@H]1/C=C/O[C@@]2(C)Oc3c(C)c(O)c4c(=O)c(c5oc6cc(N7CCN(C(=O)c8ccccc8)CC7)cc(OCc7ccc(CN8CCOCC8)cc7)c6nc-5c4c3C2=O)NC(=O)/C(C)=C\C=C\[C@H](C)[C@H](O)[C@@H](C)[C@@H](O)[C@@H](C)[C@H](OC(C)=O)[C@@H]1C [Compound 17m, (7S,9E,11S,12R,13S,14R,15R,16R,17S,18S,19E,21Z)-30-(4-benzoylpiperazin-1-yl)-2,15,17-trihydroxy-1-methoxy-3,7,12,14,16,18,22-heptamethyl-32-{[4-(morpholin-4-ylmethyl)phenyl]methoxy}-6,23,37-trioxo-8,27,38-trioxa-24,34-diazahexacyclo-[23.11.1.1^4,7.0^5,36.0^26,35.0^28,33]octatriaconta-1,3,5(36)9,19,21,25,28,30,32,34-undecaen-13-yl acetate]",–,1.4,–,4.2,0.48,–,–,0.217 µM,0.072 µM
"CO[C@H]1/C=C/O[C@@]2(C)Oc3c(C)c(O)c4c(=O)c(c5oc6cccc(OCc7ccc(CN8CCOCC8)cc7)c6nc-5c4c3C2=O)NC(=O)/C(C)=C\C=C\[C@H](C)[C@H](O)[C@@H](C)[C@@H](O)[C@@H](C)[C@H](OC(C)=O)[C@@H]1C [Compound 16d, (7S,9E,11S,12R,13S,14R,15R,16R,17S,18S,19E,21Z)-2,15,17-Trihydroxy-11-methoxy-3,7,12,14,16,18,22-heptamethyl-32-({4-[(morpholin-4-yl)methyl]phenyl}methoxy)-6,23,37-trioxo-8,27,38-trioxa-24,34-diazahexacyclo[23.11.1.1^4,7.0^5,36.0^26,35.0^28,33]octatriaconta-1(36)2,4,9,19,21,25,28,30,32,34-undecaen-13-yl acetate]",–,0.62,–,8.4,0.20,–,–,0.092 µM,0.031 µM
"CO[C@H]1/C=C/O[C@@]2(C)Oc3c(C)c(O)c4c(=O)c(c5oc6cc(N7CCN(C(=O)C(C)(C)C)CC7)cc(C)c6nc-5c4c3C2=O)NC(=O)/C(C)=C\C=C\[C@H](C)[C@H](O)[C@@H](C)[C@@H](O)[C@@H](C)[C@H](OC(C)=O)[C@@H]1C [Compound 26f, (7S,9E,11S,12R,13S,14R,15R,16R,17S,18S,19E,21Z)-30-[4-(2,2-Dimethylpropanoyl)piperazin-1-yl]-2,15,17-trihydroxy-11-methoxy-3,7,12,14,16,18,22,32-octamethyl-6,23,37-trioxo-8,27,38-trioxa-24,34-diazahexacyclo[23.11.1.1^4,7.0^5,36.0^26,35.0^28,33]octatriaconta-1(36)2,4,9,19,21,25,28,30,32,34-undecaen-13-yl acetate]",–,0.05,–,2.1,0.09,–,–,0.043 µM,0.0095 µM
"CO[C@H]1/C=C/O[C@@]2(C)Oc3c(C)c(O)c4c(=O)c(c5oc6cc(N7CCN(CC(C)C)CC7)cc(OCc7ccc(CN8CCN(C)CC8)cc7)c6nc-5c4c3C2=O)NC(=O)/C(C)=C\C=C\[C@H](C)[C@H](O)[C@@H](C)[C@@H](O)[C@@H](C)[C@H](OC(C)=O)[C@@H]1C [Compound 17p, (7S,9E,11S,12R,13S,14R,15R,16R,17S,18S,19E,21Z)-2,15,17-trihydroxy-11-methoxy-3,7,12,14,16,18,22-heptamethyl-32-({4-[(4-methylpiperazin-1-yl)methyl]phenyl}methoxy)-30-[4-(2-methylpropyl)piperazin-1-yl]-6,23,37-trioxo-8,27,38-trioxa-24,34-diazahexacyclo-[23.11.1.1^4,7.0^5,36.0^26,35.0^28,33]octatriaconta-1,3,5(36)9,19,21,25,28,30,32,34-undecaen-13-yl acetate]",–,–,–,3.7,0.20,–,–,0.092 µM,0.035 µM
"CO[C@H]1/C=C/O[C@@]2(C)Oc3c(C)c(O)c4c(=O)c(c5oc6cc(N7CCN(C(=O)c8ccc9occc9c8)CC7)cc(C)c6nc-5c4c3C2=O)NC(=O)/C(C)=C\C=C\[C@H](C)[C@H](O)[C@@H](C)[C@@H](O)[C@@H](C)[C@H](OC(C)=O)[C@@H]1C [Compound 29c, (7S,9E,11S,12R,13S,14R,15R,16R,17S,18S,19E,21Z)-30-[4-(1-Benzofuran-5-carbonyl)piperazin-1-yl]-2,15,17-trihydroxy-11-methoxy-3,7,12,14,16,18,22,32-octamethyl-6,23,37-trioxo-8,27,38-trioxa-24,34-diazahexacyclo[23.11.1.1^4,7.0^5,36.0^26,35.0^28,33]octatriaconta-(36)2,4,9,19,21,25,28,30,32,34-undecaen-13-yl acetate]",–,0.05,–,2.0,0.10,–,–,0.048 µM,0.0096 µM
